# Source: patent US20230399341A1, “7-PHENYL SUBSTITUTED 2-AMINOQUINAZOLINE INHIBITORS OF HPK1” (MERCK SHARP & DOHME LLC, priority 2020, published 2023)
# Target: T1, Human HPK1, catalytic domain (Homo sapiens, UniProt Q92918)
# T1 sequence (Q92918 1-346): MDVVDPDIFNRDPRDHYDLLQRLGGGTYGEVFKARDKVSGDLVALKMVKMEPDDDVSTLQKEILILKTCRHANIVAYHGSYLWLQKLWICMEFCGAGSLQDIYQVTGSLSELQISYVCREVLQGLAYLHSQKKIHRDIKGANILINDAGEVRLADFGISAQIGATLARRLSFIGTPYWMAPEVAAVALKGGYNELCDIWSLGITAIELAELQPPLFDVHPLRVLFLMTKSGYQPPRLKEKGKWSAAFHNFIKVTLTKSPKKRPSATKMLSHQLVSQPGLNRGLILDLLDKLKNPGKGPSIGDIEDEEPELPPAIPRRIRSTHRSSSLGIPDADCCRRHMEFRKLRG
# Experiment: HPK1-SLP76 TR-FRET Assay
# Assay type: biochemical
# Details: 75 pM HPK1, ATP 10 uM, SLP76 10 nM, 30 min pre-incubation, 60 min reaction
row,Compound,IC50 [nM]
1,"CC(=O)N1CCCC1c1ccc(Nc2ncc3c(N)c(F)c(-c4cnc5c(c4C)NCCO5)cc3n2)cc1 (single isomer, unassigned) [Compound 2-29, (R or S)-1-[2-(4-{[5-amino-6-fluoro-7-(8-methyl-2,3-dihydro-1H-pyrido[2,3-b][1,4]oxazin-7-yl)quinazolin-2-yl]amino}phenyl)pyrrolidin-1-yl]ethan-1-one]",0.273
2,"COc1cc2c(cc1Nc1ncc3ccc(-c4cncc(S(C)(=O)=O)c4)cc3n1)CNCC2 [Compound 1-43, N-(6-methoxy-1,2,3,4-tetrahydroisoquinolin-7-yl)-7-[5-(methylsulfonyl)pyridin-3-yl]quinazolin-2-amine]",82.8
3,"Cc1c(-c2cc3nc(Nc4ccc(CCC#N)cc4)ncc3c(N)c2F)cnc2c1NCCO2 [Compound 2-116, 3-(4-{[5-amino-6-fluoro-7-(8-methyl-2,3-dihydro-1H-pyrido[2,3-b][1,4]oxazin-7-yl)quinazolin-2-yl]amino}phenyl)propane-nitrile]",0.142
4,"COc1cc2c(cc1Nc1ncc3ccc(-c4cnccc4C)cc3n1)CN(C)CC2 [Compound 1-2, N-(6-methoxy-2-methyl-1,2,3,4-tetrahydroisoquinolin-7-yl)-7-(4-methylpyridin-3-yl)quinazolin-2-amine]",26.2
5,"CCS(=O)(=O)Cc1ccc(Nc2ncc3c(N)c(F)c(-c4cnc5c(c4C)NCCO5)cc3n2)cc1 [Compound 2-89, N2-(4-((ethylsulfonyl)methyl)phenyl)-6-fluoro-7-(8-methyl-2,3-dihydro-1H-pyrido[2,3-b][1,4]oxazin-7-yl)quinazoline-2,5-diamine]",0.0117
6,"COc1cc2c(cc1Nc1ncc3ccc(N4CCCC4=O)cc3n1)CN(C)CC2 [Compound 3-1, 1-{2-[(6-methoxy-2-methyl-1,2,3,4-tetrahydroisoquinolin-7-yl)amino]quinazolin-7-yl}-pyrrolidin-2-one]",241
7,"Cc1c(-c2cc3nc(Nc4cncnc4)ncc3c(N)c2F)cnc2c1NCCO2 [Compound 2-19, 6-fluoro-7-(8-methyl-2,3-dihydro-1H-pyrido[2,3-b][1,4]oxazin-7-yl)-N~2~- (pyrimidin-5-yl)quinazoline-2,5-diamine]",1.34
8,"Cc1c(-c2c(F)c(N)c3cnc(Nc4ccc5c(c4)CN(C(C)C)CC5)nc3c2Cl)cnc2c1NCCO2 (single isomer, unassigned) [Compound 2-113, 8-chloro-6-fluoro-N2-(2-isopropyl-1,2,3,4-tetrahydroisoquinolin-7-yl)-7-(8-methyl-2,3-dihydro-1H-pyrido[2,3-b][1,4]oxazin-7-yl)quinazoline-2,5-diamine]",0.0389
9,"COc1cc2c(cc1Nc1ncc3ccc(-c4cccc(CN)c4)cc3n1)CNCC2 [Compound 1-61, 7-[3-(aminomethyl)phenyl]-N-(6-methoxy-1,2,3,4-tetrahydroisoquinolin-7-yl)quinazolin-2-amine]",13.9
10,"COc1cc2c(cc1Nc1ncc3c(N)c(F)c(-c4cnc5c(c4C)NCCO5)cc3n1)CNCC2 [Compound 2-4, 6-fluoro-N~2~-(6-methoxy-1,2,3,4-tetrahydroisoquinolin-7-yl)-7-(8-methyl-2,3-dihydro-1H-pyrido[2,3-b][1,4]oxazin-7-yl)quinazoline-2,5-diamine]",0.979
11,"Cc1c(-c2c(F)c(N)c3cnc(Nc4ccc(CS(=O)(=O)C5CC5)cc4)nc3c2Cl)cnc2c1NCCO2 [Compound 2-132, 8-chloro-N2-(4-((cyclopropylsulfonyl)methyl)phenyl)-6-fluoro-7-(8-methyl-2,3-dihydro-1H-pyrido[2,3-b][1,4]oxazin-7-yl)quinazoline-2,5-diamine]",2.78
12,CNS(=O)(=O)c1cccc(Nc2ncc3c(N)c(F)c(-c4cnc5c(c4C)NCCO5)cc3n2)c1 [Compound 2-34],0.118
13,"Cc1c(-c2cc3nc(Nc4ccc5c(c4)C(C)(C)OC5=O)ncc3cc2F)cnc2c1NCCO2 [Compound 1-112, 5-{[6-fluoro-7-(8-methyl-2,3-dihydro-1H-pyrido[2,3-b][1,4]oxazin-7-yl)quinazolin-2-yl]amino}-3,3-dimethyl-2-benzofuran-1(3H)-one]",5.2

# Continued, values first:
row,IC50 [nM],Compound
1,52.8,"COc1cc2c(cc1Nc1ncc3ccc(-c4cccc(CC#N)c4)cc3n1)CNCC2 [Compound 1-55, (3-{2-[(6-methoxy-1,2,3,4-tetrahydroisoquinolin-7-yl)amino]quinazolin-7-yl}phenyl)acetonitrile]"
2,114,"COc1cc2c(cc1Nc1ncc3ccc(-c4cc(N)cc(C#N)c4)cc3n1)CNCC2 [Compound 1-62, 3-amino-5-{2-[(6-methoxy-1,2,3,4-tetrahydroisoquinolin-7-yl)amino]quinazolin-7-yl}benzonitrile]"
3,0.0888,"CCS(=O)(=O)Cc1ccc(Nc2ncc3c(N)c(F)c(-c4cnc5c(c4C)NCCO5)cc3n2)c(F)c1 [Compound 2-143, N~2~-{4-[(ethylsulfonyl)methyl]-2-fluorophenyl}-6-fluoro-7-(8-methyl-2,3-dihydro-1H-pyrido[2,3-b][1,4]oxazin-7-yl)quinazoline-2,5-diamine]"
4,0.0705,"CNC(=O)C(C)c1ccc(Nc2ncc3cc(F)c(-c4cnc5c(c4C)NCCO5)cc3n2)cc1 (single isomer, unassigned) [Compound 1-117, (R or S)-2-(4-{[6-fluoro-7-(8-methyl-2,3-dihydro-1H-pyrido[2,3-b][1,4]oxazin-7-yl)quinazolin-2-yl]amino}phenyl)-N-methylpropanamide]"
5,0.0326,"CN1CCc2ccc(Nc3ncc4c(N)c(F)c(-c5cnc6c(c5Cl)NCCO6)cc4n3)cc2C1 [Compound 2-160, 7-(8-chloro-2,3-dihydro-1H-pyrido[2,3-b][1,4]oxazin-7-yl)-6-fluoro-N~2~-(2-methyl-1,2,3,4-tetrahydroisoquinolin-7-yl)quinazoline-2,5-diamine]"
6,0.0689,"Cc1c(-c2cc3nc(Nc4ccc(CS(=O)(=O)C(C)C)cc4)ncc3c(N)c2F)cnc2c1NCCO2 [Compound 2-157, 6-fluoro-7-(8-methyl-2,3-dihydro-1H-pyrido[2,3-b][1,4]oxazin-7-yl)-N~2~- (4-{[(propan-2-yl)sulfonyl]methyl}phenyl) quinazoline-2,5-diamine]"
7,115,"COc1cc2c(cc1Nc1ncc3ccc(NCC(=O)N4CCOCC4)cc3n1)CN(C)CC2 [Compound 3-64, 2-({2-[(6-methoxy-2-methyl-1,2,3,4-tetrahydroisoquinolin-7-yl)amino]quinazolin-7-yl}-amino)-1-(morpholin-4-yl)ethan-1-one]"
8,2.37,"COc1cc2c(cc1Nc1ncc3ccc(Oc4ccc([C@H](C)N)cc4)cc3n1)CN(C)CC2 [Compound 4-8, 7-{4-[(1S)-1-aminoethyl]-phenoxy}-N-(6-methoxy-2-methyl-1,2,3,4-tetrahydro-isoquinolin-7-yl)quinazolin-2-amine]"
9,156,"COc1cc2c(cc1Nc1ncc3ccc(-c4cccc(C(C)(C)N)c4)cc3n1)CNCC2 [Compound 1-89, 7-[3-(2-aminopropan-2-yl)phenyl]-N-(6-methoxy-1,2,3,4-tetrahydroisoquinolin-7-yl)quinazolin-2-amine]"
10,148,"COc1cc2c(cc1Nc1ncc3ccc(-c4cc(S(=O)(=O)N(C)C)ccc4C)cc3n1)CNCC2 [Compound 1-79, 3-{2-[(6-methoxy-1,2,3,4-tetrahydroisoquinolin-7-yl)amino]quinazolin-7-yl}-N,N,4-trimethylbenzene-1-sulfonamide]"
